Experimental data as given in patent EP1541694A1, “Methods of identifying, selecting and/or characterizing compounds which modulate the activity of a Src family kinase” (Sirenade Pharmaceuticals AG, priority 2003, dated 2005).

Legend:
[1] = tested on: Src-YF expressing ZM77 cell lines; test: Suppression of tet-induced phenotype changes, evaluated by eye/microscope, normal cell culture plates; type: cell-based, human; details: adherent, serum-containing medium
Experimental: (§1) Phenotype changes -tet → +tet were evaluated in 24-well plates (Nunc; cat.no. 143982) under the following several different growth conditions to identify the strongest possible response (Δpt(-tet→+tet)max) 1. full (10% serum containing) growth medium a) without any growth factor supplement (-), b) with epidermal growth factor (EGF; 100ng/ml) (cat.no. 115, Research Diagnostics Inc. (RDI), Flanders, NJ, USA) or c) platelet derived growth factor type BB (PDGF-BB; 30ng/ml) (cat.no. 114b, RDI) or d) hepatocyte growth factor (HGF; 20ng/ml) (RDI, cat.no.300-010), or 2. serum-free medium a) - or b) +EGF or c) +PDGF or d) +HGF. In all cases, cells were first seeded into standard 24-well or 96-well plates (Nunc) in full growth medium. The cell number seeded per well was also varied to identify the most suitable cell densities producing Δpt(-tet→+tet)max. […]
(§2) To that end, the test compounds PP1-Chr., PP2 (cat.no. 529573, Calbiochem) and SU6656 (cat.no. 572635, Calbiochem) (see Fig.9p for chemical structures) were individually added to the cells together with tet, and the development of the phenotype changes in the presence of these compounds was monitored subsequently in direct comparison with cells that received no compound or only vehicle (0.2% DMSO) together with tet induction. […]

[2] = tested on: Src family kinases when they carry the respective TQ mutations; details: cited from earlier work
[3] = tested on: Src-TQ/YF expressing ZM170 cell lines; test: Suppression of tet-induced phenotype changes, evaluated by eye/microscope, normal cell culture plates; type: cell-based, human; details: adherent, PP1-Chr. and PP2 shown as combination 10µM + 5µM
Experimental: as §1, §2

[4] = tested on: Src-KA expressing ZM76 cell lines; test: as above; type: cell-based, human; details: adherent, serum-containing medium + EGF, PP1-Chr. and PP2 shown as combination
Experimental: as §1, §2

[5] = tested on: Src-TQ expressing ZM78 cell lines; test: as above; type: cell-based, human; details: adherent
Experimental: as §1, §2

CC(C)(C)n1nc(-c2ccc(Cl)cc2)c2c(N)ncnc21 [PP2]
suppression of tet-induced phenotype changes [1]: partially suppressed | inhibition of Src family kinases carrying the TQ mutations [2]: do not inhibit | suppression of tet-induced phenotype changes [3]: ineffective | suppression of tet-induced phenotype changes [4]: not able to suppress | suppression of tet-induced phenotype changes [5]: ineffective
